From patent publication US5891435A, “Methods and compositions for delaying or preventing the onset of autoimmune disease” (Research Corporation Technologies, Inc., priority 1993, dated 1999)
Entries after “also recorded” stand apart in the source; their conditions may differ.

Assays:
NOD mice [1] = assay: Subcutaneous immunization in IFA, development of diabetes in NOD mice; format: in vivo, mouse; conditions: for Protective effect against diabetes (in words): subcutaneous immunization in IFA; for IDD rate (frequency of diabetes): subcutaneous immunization in IFA from 4 weeks of age, FIG. 1
Description: NOD/Uf mice (Winter [1990] Diabetes 39:975-982) were bred and maintained in the temperature and light controlled facility of the Department of Pathology at the University of Florida. After weaning at 3-4 weeks of age, littermates were housed in groups of no more than 6 per cage. A soy and […]-based chow (Harlan, Madison, Wis.) and water were available ad libitum. Typical diabetes rates in the NOD/Uf colony at 40 weeks of age are near 90% in females and 30% in males. Littermates were divided into 3 groups. […] Complete Freund's adjuvant was avoided because of its known protective effect in NOD mice (Qin et al. [1993] J. Immunol. 150:2072-2080). […] Treatments started at 4 weeks of age and subsequent immunizations were administered at ages 12, 16, and 22 weeks. […] In addition, 2 new treatments were assessed. […] As in the first study, immunizations were given in IFA commencing at 4 weeks of age, but subsequent injections were given at 8 week intervals. In a third NOD mouse experiment, controlled by 18, 0.9% saline+IFA-treated littermates (10 female and 8 male), 18 mice received 250 μg BSA (Sigma) in IFA (10 female and 8 male). A third group of 21 littermates was treated with 100 μg of the 17 amino acid component peptide of BSA called ABBOS in IFA (11 female and 10 male). This peptide has been proposed as an environmental molecular mimic of an endogenous islet protein. Venous blood samples, obtained from the tail vein or retro-orbital sinus were tested serially for glucose and IAA. Blood glucose was determined using a Chemstrip bG (Boehringer Mannheim) read visually as verified by a reflectance meter. Diabetes was diagnosed when the whole blood glucose level was greater than 240 mg/dl (13.3 mmol/L). A liquid phase competitive radiobinding assay using 1:3 diluted mouse sera was used to determine IAA […] al. [1987] Diabetes 36:1286-1291). Normal murine levels, established from a survey of 48 mice from six different strains that were not susceptible to spontaneous diabetes were considered to be below 180 nU/ml (3 standard deviations above mean). The method of Kaplan and Meier (Kaplan and Meier [1958] J. Am. Stat. Assoc. 53:457-481) was used to construct life tables and the logrank Chi-square statistic was used to compare them (Mantel, N. (1966) Cancer Chemother. Rep. 50:163-170). A Student t-test or one-way ANOVA was used when appropriate to compare means. Fisher's exact test was applied to compare frequencies in the adoptive transfer studies.

insulin antibodies = assay: Insulin antibodies (IAA) in serum of immunized NOD mice, competitive radiobinding assay; format: in vivo, mouse; conditions: NOD mice immunized subcutaneously in IFA
Procedure: Littermates were divided into 3 groups. […] Complete Freund's adjuvant was avoided because of its known protective effect in NOD mice (Qin et al. [1993] J. Immunol. 150:2072-2080). […] Treatments started at 4 weeks of age and subsequent immunizations were administered at ages 12, 16, and 22 weeks. […] In addition, 2 new treatments were assessed. […] As in the first study, immunizations were given in IFA commencing at 4 weeks of age, but subsequent injections were given at 8 week intervals. In a third NOD mouse experiment, controlled by 18, 0.9% saline+IFA-treated littermates (10 female and 8 male), 18 mice received 250 μg BSA (Sigma) in IFA (10 female and 8 male). A third group of 21 littermates was treated with 100 μg of the 17 amino acid component peptide of BSA called ABBOS in IFA (11 female and 10 male).
(§1) Venous blood samples, obtained from the tail vein or retro-orbital sinus were tested serially for glucose and IAA. Blood glucose was determined using a Chemstrip bG (Boehringer Mannheim) read visually as verified by a reflectance meter. Diabetes was diagnosed when the whole blood glucose level was greater than 240 mg/dl (13.3 mmol/L). A liquid phase competitive radiobinding assay using 1:3 diluted mouse sera was used to determine IAA titer (Vardi et al. [1987] Diabetes 36:1286-1291). Normal murine levels, established from a survey of 48 mice from six different strains that were not susceptible to spontaneous diabetes were considered to be below 180 nU/ml (3 standard deviations above mean).

[2] = tested on: irradiated NOD recipients; assay: Adoptive co-transfer of splenocytes from immunized and acutely diabetic NOD mice to irradiated NOD recipients; format: in vivo, mouse; conditions: for Transfer of protection by splenocytes of immunized mice (in words): irradiated NOD recipients, adoptive co-transfer
Description: At age 10 weeks, splenocyte pools were obtained from these mice, each pool comprising cells from 3 similarly treated animals. These "modulator" splenocytes were mixed with an equal number of pooled splenocytes that had been harvested from 6 untreated, acutely diabetic NOD mice. Six hours after a 700 Rad dose of γ-irradiation, 10 previously untreated, non-diabetic, 10 week old male NOD mice received an intravenous infusion containing a total of 40×10^6 cells from one of the mixtures, i.e. 3 diluent-, 3 A chain-, and 4 B chain-treated animals.
as §1
(§2) Non-diabetic mice in the subcutaneous immunization protocol that survived to 40 weeks were sacrificed at that age. Their pancreata were removed, fixed in 10% formalin and stained for light microscopic examination with hematoxylin and eosin. The slides were coded and a consensus insulitis score was determined by 3 examiners before the code was broken. The presence of insulitis was scored using a previously described dual scale that assesses both the severity of immune infiltration and the cytoarchitectural disruption. Finally, the pancreata from the modulator cell donors in the adoptive transfer studies were similarly reviewed at 10 weeks of age. Pancreata from 8 of 10 recipients (only 2 of 4 mice receiving B chain modulator cells were sacrificed) were analyzed 20 days after their adoptive transfer.
The method of Kaplan and Meier (Kaplan and Meier [1958] J. Am. Stat. Assoc. 53:457-481) was used to construct life tables and the logrank Chi-square statistic was used to compare them (Mantel, N. (1966) Cancer Chemother. Rep. 50:163-170). A Student t-test or one-way ANOVA was used when appropriate to compare means. Fisher's exact test was applied to compare frequencies in the adoptive transfer studies. P-values are 2-sided.

NOD mice [3] = assay: Insulitis score / pancreatic histology of immunized NOD mice; format: in vivo, mouse; conditions: NOD mice immunized subcutaneously in IFA; non-diabetic survivors at 40 weeks
Procedure: as §2

NOD mice [4] = conditions: cited from earlier work
[5] = irradiated male NOD recipients of splenocytes from treated donors plus diabetic donors, diabetic/total

| Substance | Protective effect against diabetes (in words) (NOD mice [1]) | IDD rate (frequency of diabetes) (NOD mice [1]) | Insulin antibody level / insulin binding activity in serum (in words) (insulin antibodies) | Number of Diabetic Mice, Day 10 [2, 5] | Number of Diabetic Mice, Day 20 [2, 5] | Insulitis / pancreatic histology (in words) (NOD mice [3]) | other results |
| --- | --- | --- | --- | --- | --- | --- | --- |
| bovine serum albumin [BSA, reference compound] | had no protective effects |  |  |  |  |  |  |
| glutamic acid decarboxylase [human GAD65] | onset of diabetes has been delayed |  |  |  |  |  |  |
| A chain: recombinant human A chain insulin, given in IFA | had no protective effects | 53% | high insulin binding activity in serum | 0/3 | 3/3 |  | Protective effect against diabetes (in words) (NOD mice [1]; listed as A chain insulin): did not however alter the course of IDD; Insulin antibody level / insulin binding activity in serum (in words) (insulin antibodies; listed as A): stimulated high levels of insulin antibodies |
| B chain: recombinant human B chain insulin, given in IFA | resulted in protection from diabetes; also recorded: protection conferred by subcutaneous insulin immunization was duplicated; also recorded: all of the protection was localized to the B chain | 16% | stimulated high levels of insulin antibodies; also recorded: high insulin binding activity in serum | 0/4 | 0/4 | neither insulin nor B chain immunizations diminished insulitis | Protective effect against diabetes (in words) (NOD mice [1]; listed as B chain of insulin): reproduced the protective effect of insulin; also recorded: excellent protection against IDD; Protective effect against diabetes (in words) (NOD mice [1]; listed as insulin B chain): protection equal or superior to that conferred by intact insulin; Time for which diabetes was prevented after co-transfer ([2]; co-transfer of splenocytes from treated and acutely diabetic mice, p=0.03): at least 75 days; Transfer of protection by splenocytes of immunized mice (in words) [2]: able to confer the protective effect on irradiated NOD recipients; Transfer of protection by splenocytes of immunized mice (in words) ([2]; listed as B chain of insulin): able to protect irradiated, recipient mice; Number of Diabetic Mice, Day 75 [2, 5]: 0/2 |
| insulin: purified porcine NPH insulin (first study) or recombinant human NPH insulin (second study, FIG. 1), given subcutaneously in incomplete Freund's adjuvant [reference compound] | significantly reduced the incidence of diabetes; also recorded: strong protection for diabetes was achieved; also recorded: significantly reduce the incidence of IDD; also recorded: excellent protection against IDD | under 13% |  |  |  | incidence and severity of insulitis were little affected, or actually increased; also recorded: not significantly reduced; also recorded: neither insulin nor B chain immunizations diminished insulitis | Protection from hyperglycemia and insulitis (in words) (NOD mice [4]; extended prophylactic course of daily subcutaneous injections, NOD mice (Atkinson et al. 1990)): protected NOD mice from both hyperglycemia and islet infiltration by mononuclear leukocytes (insulitis); Response to oral insulin (in words) (NOD mice [4]; oral, NOD mice (Zhang et al. 1991)): beneficial response |
